Molecular target: T1, USP25 (USP25-His6, Boston Biochem E-546) (Homo sapiens, UniProt Q9UHP3)
T1 construct: His6; purchased Boston Biochem E-546
T1 sequence (Q9UHP3 1-1055): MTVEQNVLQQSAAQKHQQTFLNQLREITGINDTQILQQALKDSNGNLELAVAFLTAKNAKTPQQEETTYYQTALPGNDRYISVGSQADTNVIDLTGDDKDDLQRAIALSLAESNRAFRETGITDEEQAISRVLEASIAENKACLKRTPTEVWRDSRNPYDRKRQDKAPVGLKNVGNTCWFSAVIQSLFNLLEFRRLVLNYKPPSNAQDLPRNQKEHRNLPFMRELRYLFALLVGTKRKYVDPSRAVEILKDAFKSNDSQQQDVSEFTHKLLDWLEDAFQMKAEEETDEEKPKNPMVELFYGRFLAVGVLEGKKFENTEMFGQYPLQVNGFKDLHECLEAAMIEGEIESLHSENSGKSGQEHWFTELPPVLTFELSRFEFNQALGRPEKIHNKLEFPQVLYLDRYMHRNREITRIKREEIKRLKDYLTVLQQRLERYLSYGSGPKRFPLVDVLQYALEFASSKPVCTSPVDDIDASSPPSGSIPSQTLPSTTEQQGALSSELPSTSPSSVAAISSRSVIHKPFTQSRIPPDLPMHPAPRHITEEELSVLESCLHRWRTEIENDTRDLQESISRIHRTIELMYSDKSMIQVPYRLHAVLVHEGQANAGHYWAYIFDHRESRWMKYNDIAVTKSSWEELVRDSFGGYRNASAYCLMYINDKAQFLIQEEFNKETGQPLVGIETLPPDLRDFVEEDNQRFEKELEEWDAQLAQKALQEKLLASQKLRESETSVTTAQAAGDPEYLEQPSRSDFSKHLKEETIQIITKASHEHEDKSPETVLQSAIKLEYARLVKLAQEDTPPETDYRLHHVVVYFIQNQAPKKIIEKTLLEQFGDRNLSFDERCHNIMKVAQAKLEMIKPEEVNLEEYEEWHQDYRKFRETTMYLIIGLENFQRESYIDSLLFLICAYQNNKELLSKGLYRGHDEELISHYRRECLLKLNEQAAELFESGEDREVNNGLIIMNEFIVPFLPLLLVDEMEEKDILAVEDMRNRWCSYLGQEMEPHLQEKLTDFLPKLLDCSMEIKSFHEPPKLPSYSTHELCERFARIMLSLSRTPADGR
Assay: Ubiquitin-Rhodamine 110 Assay for USP25 Activity, Example A-2
Type: biochemical
Details: Ubiquitin-Rhodamine 110 assay, Example A-2; read-out: USP25 A-2 IC50 range
Procedure, shortened: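 Inhibition is quantified as IC50 by 4-parameter fit of fluorescence (485/535 nm) from Ub-Rh110 hydrolysis. Enzyme USP25-His6 at 75 pM with 30 min compound preincubation, then 25 nM substrate for 45 min at room temperature in pH 8.0 Tris buffer containing BME.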

How did the IC50 turn out when `Cc1cnc2c(N)c(C(=O)N[C@H]3COc4c(C#N)c(N5CC6CC(C5)N6)cc(F)c4C3)sc2n1` [Example 77, N-((3R)-7-(3,6-diazabicyclo[3.1.1]heptan-3-yl)-8-cyano-5-fluorochroman-3-yl)-7-amino-3-methylthieno[2,3-b]pyrazine-6-carboxamide] was run?
The IC50 was 200 to 2000 nM.

How did the IC50 turn out when `Cc1ccc2c(N)c(C(=O)N[C@H]3COc4cc(N5CCNCC5)c(F)c(F)c4C3)sc2n1` [Example 61, (R)-3-amino-N-(5,6-difluoro-7-(piperazin-1-yl)chroman-3-yl)-6-methylthieno[2,3-b]pyridine-2-carboxamide] was run?
Its IC50 is 50 to 200 nM.

`Cc1ccc2c(N)c(C(=O)N[C@@H]3COc4cc(N5C[C@H]6CNC[C@@H]6C5)ccc4C3)sc2n1` [Example 44, 3-amino-N-((S)-7-((3aR,6aR)-hexahydropyrrolo[3,4-c]pyrrol-2(1H)-yl)chroman-3-yl)-6-methylthieno[2,3-b]pyridine-2-carboxamide] was tested. Which IC50 did it give?
The IC50 was > 2000 nM.

`O=C(N[C@H]1COc2cc(N3CCNCC3)ccc2C1)c1ccc(NCc2ccccc2)nc1` [Example 52, (R)-6-(benzylamino)-N-(7-(piperazin-1-yl)chroman-3-yl)nicotinamide] was tested. Which IC50 did it give?
Its IC50 is 200 to 2000 nM.

`Cc1ccc2c(N)c(C(=O)N[C@H]3COc4cc(N5C[C@@H]6CC[C@H]5CN6)ncc4C3)sc2n1` [Example 75, N-((R)-7-((1S, 4S)-2 5-diazabicyclo[2.2.2]octan-2-yl)-3,4-dihydro-2H-pyrano[3,2-c]pyridin-3-yl)-3-amino-6-methylthieno[2,3-b]pyridine-2-carboxamide] was tested. Which IC50 did it give?
The IC50 was 1 to 50 nM.

`Cc1cnc2c(N)c(C(=O)N[C@H]3CCc4nc(N5CC6CC(C5)N6)ccc4C3)sc2n1` [Example 23-11, 7-amino-N-[(6S)-2-{3,6-diazabicyclo[3.1.1]heptan-3-yl}-5,6,7,8-tetrahydroquinolin-6-yl]-3-methylthieno[2,3-b]pyrazine-6-carboxamide] was tested. Which IC50 did it give?
Its IC50 is 200 to 2000 nM.

With `Cc1ccc2c(N)c(C(=O)N[C@H]3COc4c(F)c(N5CCNCC5)cc(F)c4C3)oc2n1` [Example 68, (R)-3-amino-N-(5,8-difluoro-7-(piperazin-1-yl)chroman-3-yl)-6-methylfuro[2,3-b]pyridine-2-carboxamide] as the compound, how does the IC50 read?
Its IC50 is > 2000 nM.

Which IC50 does the source give for `Cc1ccc2c(N)c(C(=O)N[C@H]3COc4cc([C@H]5CCNCC5(F)F)ccc4C3)sc2n1` [Example 69, 3-amino-N-((R)-7-((R)-3,3-difluoropiperidin-4-yl)chroman-3-yl)-6-methylthieno[2,3-b]pyridine-2-carboxamide] here?
The IC50 was 50 to 200 nM.

With `COC[C@H]1CN(c2ccc3c(n2)CC[C@H](NC(=O)c2sc4nc(C)ccc4c2N)C3)C[C@H]1N` (single isomer, unassigned) [Example 24-2] as the compound, how does the IC50 read?
The IC50 was 200 to 2000 nM.

With `CCn1ccc2cc(C(=O)N[C@H]3COc4c(F)c([C@@H]5CCNC[C@@H]5O)cc(F)c4C3)nnc21` [Example 84, N-((R)-5,8-difluoro-7-((3R,4S)-3-hydroxypiperidin-4-yl)chroman-3-yl)-7-ethyl-7H-pyrrolo[2,3-c]pyridazine-3-carboxamide] as the compound, how does the IC50 read?
The IC50 was > 2000 nM.

Which IC50 does the source give for `Cc1cnc2c(N)c(C(=O)N[C@H]3CCc4nc(N5CC6CCC(C5)N6)ccc4C3)sc2n1` [Example 23-13, 7-amino-N-{(6S)-2-{3,8-diazabicyclo[3.2.1]octan-3-yl}-5,6,7,8-tetrahydroquinolin-6-yl]-3-methylthieno[2,3-b]pyrazine-6-carboxamide] here?
The IC50 was 200 to 2000 nM.

With `C[C@H](Nc1ccc(C(=O)N[C@H]2COc3cc(N4CCNCC4)ccc3C2)cn1)c1ccccc1` [Example 53, 6-(((S)-1-phenylethyl)amino)-N-((R)-7-(piperazin-1-yl)chroman-3-yl)nicotinamide] as the compound, how does the IC50 read?
Its IC50 is > 2000 nM.

How did the IC50 turn out when `Cc1cnc2c(N)c(C(=O)N[C@H]3COc4c(C#N)c(N5CCNCC5)cc(F)c4C3)sc2n1` [Example 60, (R)-7-amino-N-(8-cyano-5-fluoro-7-(piperazin-1-yl)chroman-3-yl)-3-methylthieno[2,3-b]pyrazine-6-carboxamide] was run?
The IC50 was 200 to 2000 nM.

For `Cc1ccc2c(N)c(C(=O)N[C@H]3COc4cc(N5C[C@H]6CC[C@@H]5CN6)ncc4C3)sc2n1` [Example 76, N-((R)-7-((1 R,4R)-2,5-diazabicyclo[2.2.2]octan-2-yl)-3,4-dihydro-2H-pyrano[3,2-c]pyridin-3-yl)-3-amino-6-methylthieno[2,3-b]pyridine-2-carboxamide], which IC50 is on record?
The IC50 was 50 to 200 nM.

`Cc1ccc2c(N)c(C(=O)N[C@@H]3Cc4ccc(N5CCNCC5)nc4C4(CC4)C3)sc2n1` (single isomer, unassigned) [Example 31-3, 3-amino-6-methyl-N-[(6′S)-2-(piperazin-1-yl)-6′,7′-dihydro-5′H-spiro[cyclopropane-1,8′-quinoline]-6′-yl]thieno[2,3-b]pyridine-2-carboxamide] was tested. Which IC50 did it give?
Its IC50 is > 2000 nM.

For `Cc1ccc2c(N)c(C(=O)N[C@@H]3CCc4nc(N5CCNCC5)c(F)cc4C3)sc2n1` (single isomer, unassigned) [Example 30-2], which IC50 is on record?
Its IC50 is > 2000 nM.

With `Cc1ccc2c(N)c(C(=O)N[C@H]3CCc4nc(N5CC6CC(C5)N6)ccc4C3)sc2n1` [Example 23-10, 3-amino-N-[(6S)-2-{3,6-diazabicyclo[3.1.1]heptan-3-yl}-5,6,7,8-tetrahydroquinolin-6-yl]-6-methylthieno[2,3-b]pyridine-2-carboxamide] as the compound, how does the IC50 read?
The IC50 was 200 to 2000 nM.

With `Cc1ccc2c(N)c(C(=O)N[C@H]3COc4cc(N5CCNCC5)cc(Cl)c4C3)sc2n1` [Example 48, (R)-3-amino-N-(5-chloro-7-(piperazin-1-yl)chroman-3-yl)-6-methylthieno[2,3-b]pyridine-2-carboxamide] as the compound, how does the IC50 read?
Its IC50 is 50 to 200 nM.

With `Cc1nc2sc(C(=O)N[C@H]3CCc4nc(N5CCNCC5)ccc4C3)c(N)c2s1` [Example 23-9] as the compound, how does the IC50 read?
The IC50 was > 2000 nM.

How did the IC50 turn out when `C[C@@H](Nc1ccc(C(=O)N[C@H]2COc3cc(N4CCNCC4)ccc3C2)cn1)c1ccccc1` [Example 54, 6-(((R)-1-phenylethyl)amino)-N-((R)-7-(piperazin-1-yl)chroman-3-yl)nicotinamide] was run?
Its IC50 is > 2000 nM.

For `CCc1cnc2sc(C(=O)N[C@H]3COc4cc(N5CCNCC5)ccc4C3)c(N)c2n1` [Example 36, (R)-7-amino-2-ethyl-N-(7-(piperazin-1-yl)chroman-3-yl)thieno[2,3-b]pyrazine-6-carboxamide], which IC50 is on record?
The IC50 was 200 to 2000 nM.

With `Cc1ccc2c(N)c(C(=O)N[C@H]3CCc4nc(N5CCN[C@@H](C)C5)ccc4C3)sc2n1` (single isomer, unassigned) [Example 23-15] as the compound, how does the IC50 read?
The IC50 was 200 to 2000 nM.

For `Cc1ccc2c(N)c(C(=O)N[C@H]3COc4cc([C@H]5CCNC[C@@H]5F)ccc4C3)sc2n1` [Example 80, 3-amino-N-((R)-7-((3R,4R)-3-fluoropiperidin-4-yl)chroman-3-yl)-6-methylthieno[2,3-b]pyridine-2-carboxamide], which IC50 is on record?
The IC50 was 50 to 200 nM.

How did the IC50 turn out when `COC[C@@H]1CN(c2ccc3c(n2)CC[C@H](NC(=O)c2sc4nc(C)ccc4c2N)C3)C[C@@H]1N` (single isomer, unassigned) [Example 24-1] was run?
The IC50 was > 2000 nM.

With `Cc1ccc2c(N)c(C(=O)N[C@H]3COc4cc(N5CC6CNCC(C5)O6)c(F)c(F)c4C3)sc2n1` [Example 79, N-((3R)-7-(9-oxa-3,7-diazabicyclo[3.3.1]nonan-3-yl)-5,6-difluorochroman-3-yl)-3-amino-6-methylthieno[2,3-b]pyridine-2-carboxamide] as the compound, how does the IC50 read?
The IC50 was 1 to 50 nM.

With `Nc1c(C(=O)N[C@H]2COc3cc(N4CCNCC4)ccc3C2)sc2nc(C3CC3)sc12` [Example 45] as the compound, how does the IC50 read?
Its IC50 is 200 to 2000 nM.

How did the IC50 turn out when `Cc1ccc2c(N)c(C(=O)N[C@H]3COc4c(F)c(N5CCNCC5)cc(F)c4C3)sc2n1` [Example 55, (R)-3-amino-N-(5,8-difluoro-7-(piperazin-1-yl)chroman-3-yl)-6-methylthieno[2,3-b]pyridine-2-carboxamide] was run?
The IC50 was 50 to 200 nM.

Which IC50 does the source give for `Cc1cnc2c(N)c(C(=O)N[C@H]3COc4cc(N5CCNCC5)c(C#N)c(F)c4C3)sc2n1` [Example 67, (R)-7-amino-N-(6-cyano-5-fluoro-7-(piperazin-1-yl)chroman-3-yl)-3-methylthieno[2,3-b]pyrazine-6-carboxamide] here?
Its IC50 is 50 to 200 nM.

`Cc1ccc2c(N)c(C(=O)N[C@H]3CCc4nc(N5CC6CCC(C5)N6)cc(F)c4C3)sc2n1` [Example 23-18, N-((6S)-2-(3,8-diazabicyclo[3.2.1]octan-3-yl)-4-fluoro-5,6,7,8-tetrahydroquinolin-6-yl)-3-amino-6-methylthieno[2,3-b]pyridine-2-carboxamide] was tested. Which IC50 did it give?
The IC50 was 200 to 2000 nM.
